Like-named read-outs stand apart in the source and are kept apart here.
Target: T1, full-length human PKCι (Homo sapiens, UniProt P41743)
T1 construct: Recombinant, full-length human PKCι expressed in Sf21 insect cells is also commercially available; purchased; host or cells: Sf21 insect cells
T1 sequence (P41743 1-596): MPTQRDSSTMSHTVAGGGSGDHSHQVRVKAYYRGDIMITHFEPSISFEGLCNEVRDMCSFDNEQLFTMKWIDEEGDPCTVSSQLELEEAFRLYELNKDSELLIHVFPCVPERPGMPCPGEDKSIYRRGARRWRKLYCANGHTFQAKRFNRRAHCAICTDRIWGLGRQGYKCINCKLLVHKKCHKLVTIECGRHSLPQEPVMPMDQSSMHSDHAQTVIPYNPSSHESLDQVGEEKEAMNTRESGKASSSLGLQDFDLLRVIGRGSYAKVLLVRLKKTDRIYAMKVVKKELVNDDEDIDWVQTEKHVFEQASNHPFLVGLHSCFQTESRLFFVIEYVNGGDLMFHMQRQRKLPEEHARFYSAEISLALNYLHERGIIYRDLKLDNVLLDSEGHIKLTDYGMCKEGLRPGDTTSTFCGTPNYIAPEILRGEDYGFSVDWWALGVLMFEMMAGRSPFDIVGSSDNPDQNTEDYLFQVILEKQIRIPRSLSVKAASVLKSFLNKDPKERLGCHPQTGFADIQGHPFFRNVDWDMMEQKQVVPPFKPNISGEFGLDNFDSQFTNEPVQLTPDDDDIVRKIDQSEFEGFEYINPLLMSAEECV
Test: PKCι IC50 IMAP fluorescence polarisation assay, full-length enzyme
Format: biochemical
Protocol: Assays are based on the ability of PKCι to phosphorylate a commercially available peptide substrate in vitro. […] Recombinant, full-length human PKCι expressed in Sf21 insect cells is also commercially available. Recombinant, kinase-domain human PKCι is expressed and purified in-house.
The procedure below explains how dose response curves for inhibitors of PKCι are obtained.
Compounds to be tested are dissolved in 100% DMSO. […] 1 μl is plated into 384 well black low-binding flat bottomed assay plates which are used immediately. Dilutions and additions of compound to assay plates are carried out using Matrix WellMate® and Matrix PlateMate® Plus liquid handling systems.
The final concentration of peptide substrate in the assay is 100 nM. […] Relevant controls are included, namely no compound and no enzyme. […] The reaction is allowed to incubate for 60 minutes at room temperature, before the reaction is stopped and developed by the addition of 20 μl IMAP™ development reagent (Molecular Devices). IMAP development reagent consists of 0.25% (v/v) IMAP progressive binding reagent, 17% (v/v) IMAP progressive binding buffer A and 3% (v/v) IMAP progressive binding buffer B. The plates are then incubated for 2 hours at room temperature before being read using an appropriate plate reader, for example a Molecular Devices HT Analyst or a BMG Pherastar.

[1] = full length PKCi at 15 μM ATP, read-out: IC50 in IMAP assay against full length PKCi (Activity)
[2] = full length PKCi at 15 μM ATP, read-out: IC50 in IMAP assay against full length PKCi

Row | IC50 [1] [µM] | IC50 [2] [µM] | Structure (SMILES) | other results
1 | 10 to 40 | – | CC(C)(C)C(=O)N1CCc2c(sc3nc(-c4ccncc4)nc(NCCN)c23)C1 [compound 104, 1-[4-(2-amino-ethylamino)-2-pyridin-4-yl-5,8-dihydro-6H-pyrido[4′,3′:4,5]thieno[2,3-d]pyrimidin-7-yl]-2,2-dimethyl-propan-1-one] | –
2 | 10 to 40 | – | CCC(=O)N1CCc2c(sc3nc(-c4ccncc4)nc(NCCN)c23)C1 [compound 106, 1-[4-(2-Amino-ethylamino)-2-pyridin-4-yl-5,8-dihydro-6H-pyrido[4′,3′:4,5]thieno[2,3-d]pyrimidin-7-yl]-propan-1-one] | –
3 | 10 to 40 | – | CCCCC(=O)N1CCc2c(sc3nc(-c4ccncc4)nc(NCCN)c23)C1 [compound 110, 1-[4-(2-Amino-ethylamino)-2-pyridin-4-yl-5,8-dihydro-6H-pyrido[4′,3′:4,5]thieno[2,3-d]pyrimidin-7-yl]-pentan-1-one] | –
4 | 1 to 10 | – | c1ccc(C[C@H]2CN(c3nc(-c4cn[nH]c4)nc4sc5c(c34)CCCC5)CCN2)cc1 [compound 196, 4-((S)-3-Benzyl-piperazin-1-yl)-2-(1H-pyrazol-4-yl)-5,6,7,8-tetrahydro-benzo[4,5]thieno[2,3-d]pyrimidine] | –
5 | – | 1 to 10 | c1cc(-c2nc(N[C@@H]3CCNC3)c3sccc3n2)ccn1 [compound 317, (2-Pyridin-4-yl-thieno[3,2-d]pyrimidin-4-yl)-(R)-pyrrolidin-3-yl-amine] | –
6 | – | 10 to 40 | N[C@@H]1CCN(c2nc(-c3ccncc3)nc3ccsc23)C1 [compound 318, (R)-1-(2-Pyridin-4-yl-thieno[3,2-d]pyrimidin-4-yl)-pyrrolidin-3-ylamine] | –
7 | – | 10 to 40 | NC(=O)CN1CC[C@@H](Nc2nc(-c3ccncc3)nc3ccsc23)C1 [compound 320, 2-[(R)-3-(2-Pyridin-4-yl-thieno[3,2-d]pyrimidin-4-ylamino)-pyrrolidin-1-yl]-acetamide] | –
8 | – | 10 to 40 | F[C@@H]1CNC[C@@H]1Nc1nc(-c2ccncc2)nc2ccsc12 [compound 321, ((3S,4R)-4-Fluoro-pyrrolidin-3-yl)-(2-pyridin-4-yl-thieno[3,2-d]pyrimidin-4-yl)-amine] | –
9 | – | 1 to 10 | N[C@H](CNc1nc(-c2ccncc2Cl)nc2ccsc12)Cc1ccccc1 [compound 323, (S)-N*1*-[2-(3-Chloro-pyridin-4-yl)-thieno[3,2-d]pyrimidin-4-yl]-3-phenyl-propane-1,2-diamine] | –

More lines, now with the values behind:

Row | Structure (SMILES) | IC50 [1] [µM] | IC50 [2] [µM] | other results
10 | CC(=O)N1CCc2c(sc3nc(-c4ccncc4)nc(NCCN)c23)C1 [compound 105, 1-[4-(2-Amino-ethylamino)-2-pyridin-4-yl-5,8-dihydro-6H-pyrido[4′,3′:4,5]thieno[2,3-d]pyrimidin-7-yl]-ethanone] | 1 to 10 | – | –
11 | CC(C)C(=O)N1CCc2c(sc3nc(-c4ccncc4)nc(NCCN)c23)C1 [compound 107, 1-[4-(2-Amino-ethylamino)-2-pyridin-4-yl-5,8-dihydro-6H-pyrido[4′,3′:4,5]thieno[2,3-d]pyrimidin-7-yl]-2-methyl-propan-1-one] | 10 to 40 | – | –
12 | NCCNc1nc(-c2ccncc2)nc2sc3c(c12)CCN(C(=O)C1CC1)C3 [compound 108, [4-(2-Amino-ethylamino)-2-pyridin-4-yl-5,8-dihydro-6H-pyrido[4′,3′:4,5]thieno[2,3-d]pyrimidin-7-yl]-cyclopropyl-methanone] | 10 to 40 | – | –
13 | NCCNc1nc(-c2ccncc2)nc2sc3c(c12)CCN(C(=O)C1CCC1)C3 [compound 109, [4-(2-Amino-ethylamino)-2-pyridin-4-yl-5,8-dihydro-6H-pyrido[4′,3′:4,5]thieno[2,3-d]pyrimidin-7-yl]-cyclobutyl-methanone] | 10 to 40 | – | –
14 | CN(C)CC(=O)N1CCc2c(sc3nc(-c4ccncc4)nc(NCCN)c23)C1 [compound 111, 1-[4-(2-Amino-ethylamino)-2-pyridin-4-yl-5,8-dihydro-6H-pyrido[4′,3′:4,5]thieno[2,3-d]pyrimidin-7-yl]-2-dimethylamino-ethanone] | 10 to 40 | – | –
15 | CCN1CCc2c(sc3nc(-c4ccncc4)nc(NCCN)c23)C1 [compound 112, N*1*-(7-ethyl-2-pyridin-4-yl-5,6,7,8-tetrahydro-pyrido[4′,3′:4,5]thieno[2,3-d]pyrimidin-4-yl)-ethane-1,2-diamine] | 10 to 40 | – | –
16 | CN1CCc2c(sc3nc(-c4ccncc4)nc(NCCN)c23)C1 [compound 113, N*1*-(7-Methyl-2-pyridin-4-yl-5,6,7,8-tetrahydro-pyrido[4′,3′:4,5]thieno[2,3-d]pyrimidin-4-yl)-ethane-1,2-diamine] | 10 to 40 | – | –
17 | CC(C)CN1CCc2c(sc3nc(-c4ccncc4)nc(NCCN)c23)C1 [compound 114, N*1*-(7-Isobutyl-2-pyridin-4-yl-5,6,7,8-tetrahydro-pyrido[4′,3′:4,5]thieno[2,3-d]pyrimidin-4-yl)-ethane-1,2-diamine] | 10 to 40 | – | –
18 | c1cc(-c2nc(O[C@@H]3CCNC3)c3c4c(sc3n2)CCCC4)ccn1 [compound 139, 2-Pyridin-4-yl-4-((R)-pyrrolidin-3-yloxy)-5,6,7,8-tetrahydro-benzo[4,5]thieno[2,3-d]pyrimidine] | 1 to 10 | – | –
19 | Cn1cc(-c2nc(NCCN)c3c4c(sc3n2)CCCC4)cn1 [compound 195, N*1*-[2-(1-Methyl-1H-pyrazol-4-yl)-5,6,7,8-tetrahydro-benzo[4,5]thieno[2,3-d]pyrimidin-4-yl]-ethane-1,2-diamine] | – | – | IC50 (enzyme form not given, no asterisk, read-out: Activity (IC50 printed as a bound, no asterisk)): > 60 µM
20 | Cc1sc2c(NC[C@@H](N)Cc3ccccc3)nc(-c3ccncc3)nc2c1Br [compound 300, (S)—N*1*-(7-bromo-6-methyl-2-pyridin-4-yl-thieno[3,2-d]pyrimidin-4-yl)-3-phenyl-propane-1,2-diamine] | < 0.1 | – | –
21 | COc1ccccc1C[C@H](N)CNc1nc(-c2ccncc2)nc2c(Br)c(C(C)(C)C)sc12 [compound 303, (S)—N*1*-(7-bromo-6-tert-butyl-2-pyridin-4-yl-thieno[3,2-d]pyrimidin-4-yl)-3-(2-methoxy-phenyl)-propane-1,2-diamine] | – | 10 to 40 | –
22 | N[C@H](CNc1nc(-c2ccncc2F)nc2c(Br)csc12)Cc1ccccc1 [compound 304, (S)—N*1*-[7-Bromo-2-(3-fluoro-pyridin-4-yl)-thieno[3,2-d]pyrimidin-4-yl]-3-phenyl-propane-1,2-diamine] | – | < 0.1 | –
23 | C[C@H](N)CNc1nc(-c2ccncc2)nc2c(Br)csc12 [compound 305, (S)—N*1*-(7-Bromo-2-pyridin-4-yl-thieno[3,2-d]pyrimidin-4-yl)-propane-1,2-diamine] | – | 0.1 to 1 | –
24 | N[C@H](CNc1nc(-c2ccncc2)nc2c(Cl)csc12)Cc1ccccc1 [compound 306, (S)—N*1*-(7-Chloro-2-pyridin-4-yl-thieno[3,2-d]pyrimidin-4-yl)-3-phenyl-propane-1,2-diamine] | – | < 0.1 | –
25 | Cc1sc2c(NCCN)nc(-c3ccncc3)nc2c1C [compound 309, N*1*-(6,7-Dimethyl-2-pyridin-4-yl-thieno[3,2-d]pyrimidin-4-yl)-ethane-1,2-diamine] | – | 1 to 10 | –
26 | NCCNc1nc(-c2ccncc2)nc2c(-c3ccc(Br)cc3)csc12 [compound 310, N*1*-[7-(4-Bromo-phenyl)-2-pyridin-4-yl-thieno[3,2-d]pyrimidin-4-yl]-ethane-1,2-diamine] | – | 1 to 10 | –
27 | N[C@H](CNc1nc(-c2ccncc2)nc2ccsc12)Cc1ccccc1 [compound 314, (S)-3-Phenyl-N*1*-(2-pyridin-4-yl-thieno[3,2-d]pyrimidin-4-yl)-propane-1,2-diamine] | – | 0.1 to 1 | –
28 | F[C@H]1CN(Cc2ccccc2)C[C@@H]1Nc1nc(-c2ccncc2)nc2ccsc12 [compound 315, ((3S,4S)-1-Benzyl-4-fluoro-pyrrolidin-3-yl)-(2-pyridin-4-yl-thieno[3,2-d]pyrimidin-4-yl)-amine] | – | 10 to 40 | –
29 | c1cc(-c2nc(N[C@@H]3CCCNC3)c3sccc3n2)ccn1 [compound 316, (R)-Piperidin-3-yl-(2-pyridin-4-yl-thieno[3,2-d]pyrimidin-4-yl)-amine] | – | 1 to 10 | –
30 | O[C@H]1CNC[C@@H]1Nc1nc(-c2ccncc2)nc2ccsc12 [compound 319, (3S,4S)-4-(2-Pyridin-4-yl-thieno[3,2-d]pyrimidin-4-ylamino)-pyrrolidin-3-ol] | – | 1 to 10 | –
31 | Clc1cnccc1-c1nc(N[C@@H]2CCNC2)c2sccc2n1 [compound 322, [2-(3-Chloro-pyridin-4-yl)-thieno[3,2-d]pyrimidin-4-yl]-(R)-pyrrolidin-3-yl-amine] | – | 1 to 10 | –
